Legend:
[1] = Single dose PK study in rats (plasma concentration); assay type: in vivo; settings: Sprague Dawley rats, single i.v. 10, 75 and 150 μg/kg
Experimental: Following administration, blood was collected at days 1-7 post administration (with multiple samples collected over the first 24 hours following administration). […]

[2] = test system: NK cells, CD8 T cells, CD4 T cells; test: In vivo PD study in non-human primates: lymphocyte cell numbers and proliferation; parameters: species or system cynomolgus monkeys
Experimental: In the study, cynomolgus monkeys, one female and one male, were administered 500 μg/kg of Conjugate 2 intravenously. A series of blood samples were taken from each animal before treatment (day-6 and -1) and at multiple intervals following single dose treatment for assessment by flow cytometry of lymphocyte cell numbers (NK cells, CD8 T-cells, etc.) and activation.
NK cell counts were determined to assess the ability of exemplary Conjugate 2 to induce sustained NK cell proliferation in non-human primates; results are shown in FIGS. 16A and 16B. NK cells and their proliferation in blood from cynomolgus monkey were identified by flow cytometry. Acquisition and analysis of NK cells (CD45+ CD3− CD16+) and their proliferation status (CD45+CD3−CD16+ Ki67+) were conducted using BD FACS DIVA software. Absolute values for NK cells and proliferating NK cells were used to calculate % Ki67 positivity within the NK population. Pre and post-treatment values were plotted using Prism.
CD8 T cell counts were also determined as illustrated in FIG. 17 for each animal from pre-dose to 14 days post-administration. Specifically, CD8 T cells were defined as CD45+CD3+CD4−CD8+. Blood from the monkeys was also subject to immunophenotyping as previously described. In monkey, CD8 T cells increased in a sustained manner, an effect lasting for at least 10 days. This plot further exemplifies the ability of an exemplary long acting IL-15 receptor agonist, Conjugate 2, to induce proliferation and sustained increases in numbers of CD8 T-cells post-administration.
In monkey, CD8 TEM cells were defined as CD45+CD3+CD4−CD8+CD45Ra−CD197− and CD8 Tcm were defined as CD45+CD3+CD4−CD8+CD45Ra−CD197+. Immunophenotyping was conducted by flow cytometry with sample acquisition on DIVA software and data analysis on Flowjo software. Graphs were plotted using Prism. […] The figures indicate that both CD8 effector and central memory T cell populations proliferate in response to exemplary Conjugate 2.
In this study, cynomolgus monkeys (cyno), one female and one male, were each intravenously administered a single dose of Conjugate 1 (0.1 mg/kg). A series of blood samples were taken from each animal over a 14-day time course and subjected to flow cytometry analysis of various lymphocytes (CD8 T cells, Ki-67 percent positivity within total CD8, CD8 central memory T cells (TCM) and CD8 effector memory T cells (Tem), NK cells and Ki-67 percent positivity of NK cells).
Cynomolgus monkeys (n=3-4 males), were administered a single intravenous injection of Conjugate 1 at 0.003, 0.01, 0.1 mg/kg or a vehicle control. Blood samples were collected at the indicated time points pre and post dose (−5, −2, 1, 2, 3, 4, 5, 6, 7, 10, 14, 17 days) and subjected to flow cytometric analysis to examine pharmacodynamic effects within lymphocyte populations. Proliferation (% Ki-67) and JAK/STAT signaling (% pSTAT5) for NK cells, CD8 T cells, and CD4 T cells were examined, with the results shown in FIGS. 45A-C and FIGS. 46A-C, respectively.
In cynomolgus monkey, CD8 naïve and memory subpopulations were defined by CD45Ra, CD197 and CD95. […] Within the CD8 Tem, […] and Tscm populations, Conjugate 1 induced robust % Ki-67 expression in a dose dependent manner with detectable increases in proliferation marker positivity starting as early as day 2, reaching a maximum at day 5 and returning to baseline between days 10-14. The Ki-67 expression and kinetics within the CD8 populations support the sustained increase in CD8 T cell numbers shown in Example 27 and FIGS. 47A-D.

YAC-1 cells = assay type: cell-based
Experimental: NK cell-mediated cytotoxicity against target tumor cells was evaluated in vitro using a flow cytometry-based assay. NK cells were isolated from spleens of Balb/c mice using negative-selection magnetic cell isolation (Mouse NK cell enrichment kit, Stemcell Technologies) and used as effector cells. For in vitro studies, isolated NK cells were stimulated with Conjugate 1 at concentrations of 3000, 1000, 300, 30, 3, or 0 (unstimulated) ng/ml overnight in a humidified incubator at 37° C., 5% CO2 prior to use in the cytotoxicity assay. For in vivo studies, mice were dosed with 0.3 mg/kg Conjugate 1, and splenic NK cells were isolated 24, 48, and 72 h post-dose and used directly in the cytotoxicity assay.
YAC-1 T-cells labeled with PKH26 were used as target cells. To monitor NK cell cytotoxicity, NK and YAC-1 cells were co-cultured at various effector: target ratios (50:1, 25:1, and 12.5:1) for 4 hours at 37° C., 5% CO2, then stained with 7-AAD for 10 min to label dead cells. Cells were immediately analyzed using flow cytometry. Lysed target cells were identified as PKH26+7-AAD+.
Balb/c mice (n=2/group) were treated with Conjugate 1 (0.006, 0.03 or 0.3 mg/kg), IL-15 (1 mg/kg) or vehicle control. After treatment, spleens were isolated 24, 72, and 96 hours for NK cell isolation. […]

[3] = cynomolgus monkey, each dose level, vs vehicle

Substance: mono-mPEG-SBA40K-IL-15 [Conjugate 1]
- half-life [1]: approximately 18 hours
- time NK cell numbers were sustained ([2]; NHP, 0.1 and 0.01 mg/kg): up to 14 days
- CD4 T cell numbers, % Ki-67 and % pSTAT5 ([2]; NHP, highest dose level 0.1 mg/kg): induced a small increase in CD4 T cell numbers, % Ki-67 and % pSTAT5
- day of maximal total CD8 T cell numbers ([2]; NHP, single i.v.): ~5 days
- dose at which % Ki-67 positivity in CD8 T cells is detectable ([2]; NHP, single i.v.): 10 µg/kg
- dose at which effect on total CD8 cell numbers can be detected ([2]; NHP, single i.v.): 3 µg/kg
- dose level at which a significant increase in % Ki-67 in NK cells can be detected ([2]; NHP, single i.v.): 1 µg/kg
- first detectable increase in % Ki-67 in CD8 Tem, Tcm and Tscm ([2]; NHP, single i.v.): 2 days
- lowest dose level yielding a significant increase in NK cells ([2]; NHP, single i.v.): 10 µg/kg
- maximum of % Ki-67 in CD8 Tem, Tcm and Tscm ([2]; NHP, single i.v.): 5 days
- return of % Ki-67 in CD8 Tem, Tcm and Tscm to baseline ([2]; NHP, single i.v.): 10 to 14 days
- time Ki-67 expression in NK cells can be sustained ([2]; NHP, single i.v.): up to 14 days
- time increase in total CD8 T cells is sustained ([2]; NHP, single i.v.): over seven
- time of maximum NK cell numbers after dosing ([2]; NHP, single i.v.): five
- increase in CD8 T cell numbers ([2]; cyno, single i.v. 0.1 mg/kg): 7-10 X
- increase in CD8 Tcm numbers ([2]; cyno, single i.v. 0.1 mg/kg): 27-30 X
- increase in CD8 Tem numbers ([2]; cyno, single i.v. 0.1 mg/kg): 21-33 X
- increase in NK cells ([2]; cyno, single i.v. 0.1 mg/kg): 9-10 X
- time increase in CD8 T cell numbers was sustained [2, 3]: at least 10 days
- time increase in NK cell numbers was sustained [2, 3]: at least 14 days
- NK cytotoxicity (percent specific lysis of YAC-1 cells) after treatment of mice (YAC-1 cells): elevation of NK cytotoxicity superior in magnitude and duration

Source: US20240424115A1, “LONG-ACTING INTERLEUKIN-15 RECEPTOR AGONISTS AND RELATED IMMUNOTHERAPEUTIC COMPOSITIONS AND METHODS” (Nektar Therapeutics, priority 2017, published 2024)
